# Where two headings read alike, the source gives them in different places.
# Tested on: iCell cardiomyocytes (human iPSC-derived cardiomyocytes)
# Assay: Intracellular Ca2+ flux / beating parameters in iCell cardiomyocytes (FLIPR tetra), 90 min or 24 h
# Format: cell-based
# Settings: Homo sapiens, Cardiomyocyte, 0.00 µM = 100.00; for activity at 0.1 µM: 0.10 µM
# In short: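 Gelatin-plated iCell cardiomyocytes (5,000/well) were dye-loaded for 2 h at 37 °C, then exposed for 90 min or 24 h to PCBs/metabolites (5× plates at 0.05–500 µM; 0.5% DMSO final) in triplicate. Ca2+ flux was read for 100 s at 8 Hz and 37 °C. Peak height, frequency, spacing CV and decay/rise ratio were vehicle-normalized and fitted with a four-parameter logistic model, with POD set at 1 SD of vehicle.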
# [1] = 1.5 h, read-out: cm.amp.avg.90min
# [2] = 1.5 h, read-out: cm.amp.cv.90min
# [3] = 1.5 h, read-out: cm.decay.rise.90min
# [4] = 1.5 h, read-out: cm.spacing.cv.90min
# [5] = 24 h, read-out: cm.amp.avg.24hrs
# [6] = 24 h, read-out: cm.amp.cv.24hrs
# [7] = 24 h, read-out: cm.decay.rise.24hrs
# [8] = 24 h, read-out: cm.spacing.cv.24hrs
smiles,measurement,setting,value
COc1ccc(-c2cccc(Cl)c2)cc1Cl [4-OMe PCB11],activity at 0.01 µM,[1],85.7%
same,activity at 0.01 µM,[2],106%
same,activity at 0.01 µM,"1.5 h, read-out: cm.bpm.90min",99.1%
same,activity at 0.01 µM,[3],99.7%
same,activity at 0.01 µM,[4],111%
same,activity at 0.1 µM,[1],97.2%
same,activity at 0.1 µM,[2],98.8%
same,activity at 0.1 µM,"1.5 h, read-out: cm.bpm.90min",105%
same,activity at 0.1 µM,[3],99.7%
same,activity at 0.1 µM,[4],106%
same,activity at 1 µM,[1],106%
same,activity at 1 µM,[2],101%
same,activity at 1 µM,"1.5 h, read-out: cm.bpm.90min",96.5%
same,activity at 1 µM,[3],101%
same,activity at 1 µM,[4],145%
same,activity at 10 µM,[1],94.1%
same,activity at 10 µM,[2],109%
same,activity at 10 µM,"1.5 h, read-out: cm.bpm.90min",127%
same,activity at 10 µM,[3],94%
same,activity at 10 µM,[4],102%
same,activity at 100 µM,[1],0%
same,activity at 100 µM,[2],0%
same,activity at 100 µM,"1.5 h, read-out: cm.bpm.90min",0%
same,activity at 100 µM,[3],0%
same,activity at 100 µM,[4],0%
same,activity at 0.01 µM,[5],121%
same,activity at 0.01 µM,[6],82.2%
same,activity at 0.01 µM,"24 h, read-out: cm.bpm.24hrs",110%
same,activity at 0.01 µM,[7],94.8%
same,activity at 0.01 µM,[8],108%
same,activity at 0.1 µM,[5],79.3%
same,activity at 0.1 µM,[6],98.7%
same,activity at 0.1 µM,"24 h, read-out: cm.bpm.24hrs",103%
same,activity at 0.1 µM,[7],98.9%
same,activity at 0.1 µM,[8],101%
same,activity at 1 µM,[5],107%
same,activity at 1 µM,[6],95.6%
same,activity at 1 µM,"24 h, read-out: cm.bpm.24hrs",90.7%
same,activity at 1 µM,[7],111%
same,activity at 1 µM,[8],98.4%
same,activity at 10 µM,[5],92.1%
same,activity at 10 µM,[6],119%
same,activity at 10 µM,"24 h, read-out: cm.bpm.24hrs",123%
same,activity at 10 µM,[7],109%
same,activity at 10 µM,[8],118%
same,activity at 100 µM,[5],0%
same,activity at 100 µM,[6],0%
same,activity at 100 µM,"24 h, read-out: cm.bpm.24hrs",0%
same,activity at 100 µM,[7],0%
same,activity at 100 µM,[8],0%
